Laboratory results: ChEMBL document CHEMBL1128982, “3-Hydroxy-quinolin-2-ones: Inhibitors of [3H]-glycine binding to the site associated with the NMDA receptor” (Bioorg Med Chem Lett, 1996)

Assays:
[1] = molecular target: Glutamate receptor ionotropic, AMPA (Rattus norvegicus) (UniProt P19491+P19492+P19493+P19490); assay: Displacement of [3H]AMPA from AMPA receptor of rat cortical membranes; type: cell membranes; design: concentration or dose not given beside the values; conditions: Membrane, concentration not given here
Glutamate NMDA receptor = assay: Displacement of [3H]-glycine from NMDA receptor of rat cortical membranes; type: cell membranes, Membrane
[2] = molecular target: T1, Glutamate NMDA receptor (Rattus norvegicus) (UniProt P35439+Q00959+Q00960+Q00961+Q62645+Q8VHN2+Q9R1M7); assay: Displacement of [3H]glycine from NMDA receptor of rat cortical membranes; type: cell membranes; design: concentration or dose not given beside the values; conditions: Membrane, concentration not given here
[3] = molecular target: T1, Glutamate NMDA receptor (Rattus norvegicus); assay: Compound was evaluated for its ability to displace [3H]-glycine from rat cortical membranes at concentration 10 uM for NMDA receptor

Row | SMILES | inhibition [1] [%] | IC50 (Glutamate NMDA receptor) [nM] | inhibition [2] [%] | further results
1 | Oc1nc2cc(Cl)cc(Cl)c2c(Cl)c1O | 48 | 4500 | – | –
2 | O=C(Nc1ccccc1)C(=O)c1c(O)c(O)nc2cc(Cl)cc(Cl)c12 | 40 | 760 | – | –
3 | Oc1nc2ccccc2c(Br)c1O | – | – | 59 | –
4 | O=C(O)C(=O)c1c(O)c(O)nc2cc(Cl)cc(Cl)c12 | 63 | 520 | – | –
5 | CCOC(=O)c1c(O)c(O)nc2ccccc12 | – | – | 50 | –
6 | Oc1cc2c(Cl)cc(Cl)cc2nc1O | – | – | 29 | –
7 | CCOC(=O)C(=O)c1c(O)c(O)nc2ccccc12 | – | 12000 | – | –
8 | Oc1nc2cc(Cl)cc(Cl)c2c(Br)c1O | 41 | 2800 | – | –
9 | COC(=O)C(=O)c1c(O)c(O)nc2cc(Cl)cc(Cl)c12 | 28 | 150 | – | –
10 | CCOC(=O)C(=O)c1c(O)c(O)nc2cc(Cl)cc(Cl)c12 | 56 | 29 | – | –
11 | COC(=O)C(=O)c1c(O)c(O)nc2ccccc12 | 2.6 | 3000 | – | –
12 | Oc1nc2ccccc2c(Cl)c1O | – | 1400 | – | –
13 | O=C(O)c1c(O)c(O)nc2ccccc12 | – | – | 60 | –
14 | COc1ccc(NC(=O)c2c(O)c(O)nc3ccccc23)cc1OC | – | – | 0 | –
15 | CNC(=O)C(=O)c1c(O)c(O)nc2cc(Cl)cc(Cl)c12 | 15 | 3800 | – | –
16 | CCOC(=O)c1c(O)c(O)nc2cc(Cl)c(Cl)cc12 | – | – | 43 | –
17 | CCOC(=O)/C=C/c1c(O)c(O)nc2ccccc12 | – | – | 11 | –
18 | Oc1nc2ccc(Cl)c(Cl)c2c(Br)c1O | – | – | 23 | –
19 | O=C(O)/C=C/c1c(O)c(O)nc2ccccc12 | – | – | 43 | –
20 | CCOC(=O)c1c(OC)c(O)nc2ccccc12 | – | – | – | inhibition [3]: 0%
21 | CCOC(=O)c1c(OC)c(O)nc2cc(Cl)cc(Cl)c12 | – | – | – | inhibition [3]: 5%
22 | Oc1cc2c(Cl)c(Cl)ccc2nc1O | – | – | 0 | –
23 | O=c1[nH]c2ccccc2cc1O | – | – | 29 | –
24 | CCOC(=O)c1c(O)c(O)nc2ccc(Cl)c(Cl)c12 | – | – | 38 | –
25 | O=C(O)CCc1c(O)c(O)nc2ccccc12 | – | – | 25 | –
26 | CCOC(=O)c1c(OC)c(O)nc2cc(Cl)c(Cl)cc12 | – | – | – | inhibition [3]: 0%
27 | O=C(NCc1ccccc1)c1c(O)c(O)nc2ccccc12 | – | – | 40 | –
28 | CCOC(=O)c1c(O)c(O)nc2cc(Cl)cc(Cl)c12 | – | 62 | – | –
29 | O=C(O)C(=O)c1c(O)c(O)nc2ccccc12 | 31.9 | 1800 | – | –
30 | Oc1nc2ccc(Cl)c(Cl)c2c(Cl)c1O | – | – | 20 | –
